Measured values taken from article PMC7122770, “Potential endocrine disrupting properties of toys for babies and infants” (PLoS ONE, 2020).
Structures can show the parent of a compound that is named as a salt. Where two headings read alike, the source gives them in different places. One block for each compound: values may come before it.

Assays:
[1] = target: T1, human estrogen receptor (Estrogen Receptor α) (Homo sapiens, UniProt P03372); test: Analysis of detected pure substances in ER-CALUX; assay type: cell-based; conditions: for % E2 max: mean of triplicates
T1 sequence (P03372 1-595): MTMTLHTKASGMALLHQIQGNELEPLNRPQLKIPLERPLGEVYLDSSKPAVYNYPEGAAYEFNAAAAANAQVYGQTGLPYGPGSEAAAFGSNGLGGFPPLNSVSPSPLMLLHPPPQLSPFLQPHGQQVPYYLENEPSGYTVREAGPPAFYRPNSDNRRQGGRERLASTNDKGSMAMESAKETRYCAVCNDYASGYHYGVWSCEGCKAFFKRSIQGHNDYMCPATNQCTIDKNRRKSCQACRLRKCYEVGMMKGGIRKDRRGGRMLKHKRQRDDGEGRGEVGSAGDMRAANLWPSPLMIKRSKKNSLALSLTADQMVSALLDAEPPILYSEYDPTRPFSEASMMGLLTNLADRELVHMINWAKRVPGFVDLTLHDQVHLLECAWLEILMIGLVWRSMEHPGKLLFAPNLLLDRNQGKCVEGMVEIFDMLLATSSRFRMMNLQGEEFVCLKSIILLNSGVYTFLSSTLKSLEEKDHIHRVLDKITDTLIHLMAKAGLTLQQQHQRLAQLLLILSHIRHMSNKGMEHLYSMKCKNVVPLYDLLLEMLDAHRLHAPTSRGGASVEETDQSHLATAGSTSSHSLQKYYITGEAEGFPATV

[2] = Toxicological reference values (TDI, ADI, reference dose); set-up: species or system human
Source text: Risks were estimated by comparing the daily exposure (DE) to toxicological reference values (TRV) when available.

[3] = cited from earlier work
[4] = cited from earlier work; remark: listed apart in the source
[5] = tested on: U2-OS osteosarcoma cell line; test: Cytotoxic effects / cell viability in the CALUX cells; assay type: cell-based, human; conditions: two highest concentrations in ER-CALUX
[6] = pure substance in ER-CALUX, read-out: EC50
[7] = 2,50E-06 mol/l in bioassay medium
[8] = 5,00E-06 mol/l in bioassay medium
[9] = 2,50E-04 mol/l in bioassay medium
[10] = 5,00E-04 mol/l in bioassay medium
[11] = 5,00E-05 mol/l in bioassay medium

SMILES: CC(C)C(=O)OCC(C)(C)C(OC(=O)C(C)C)C(C)C (centres unmarked) [2,2,4-Trimethyl-1,3-pentanediol diisobutyrate]
- EC50 [1]: > 500 µM
- Estrogen active [yes/no] ([1]; pure substance in ER-CALUX): no
- Estrogen active [yes/no] ([1]; pure substance in ER-CALUX, listed as TXIB): negative

- endocrine activity in the in vitro tests used in this study ([1]; pure substance): not endocrine active
- Estrogen active [yes/no] ([1]; pure substance in ER-CALUX): no
- EC50 [1, 6]: > 500 µM
SMILES: CCCCCCCC/C=C\CCCCCCCCCCCC(N)=O [13-Docosenamide (Z)]

SMILES: C#C[C@]1(O)CC[C@H]2[C@@H]3CCc4cc(O)ccc4[C@H]3CC[C@@]21C [17α-ethinyl estradiol, reference compound]
- fold lower ADI than 17β-estradiol [2]: approximately 400 fold
- in vitro estrogen activity compared with 17β-estradiol [3]: approximatively the same in vitro estrogen activity as the natural sex hormone 17β-estradiol
- acceptable daily intake (ADI) ([4]; adult person (60 kg), based on working place thresholds ref 40): 7 ng

SMILES: CCCCOC(=O)CC(CC(=O)OCCCC)(OC(C)=O)C(=O)OCCCC [Acetyl tributyl citrate (ATBC), Acetyl tributyl citrate]
- estrogenic or androgenic activity ([3]; based on published data ref 2): does not seem to show estrogenic or androgenic activity

SMILES: O=C(c1ccccc1)c1ccccc1 [Benzophenone]
- tolerable daily intake (TDI) ([4]; recommended by the European Food Safety Agency ref 43): 30 μg/kg body weight per day

SMILES: CC(C)(c1ccc(O)cc1)c1ccc(O)cc1 [Bisphenol A (BPA), Bisphenol A]
- % E2 max [1, 7]: 151%
- % E2 max [1, 8]: 154%
- % E2 max ([1]; 5,00E-07 mol/l in bioassay medium): 116%
- % E2 max ([1]; 5,00E-08 mol/l in bioassay medium): 11%
- % E2 max ([1]; 5,00E-09 mol/l in bioassay medium): 5%
- factor less estrogen active than the natural estrogen 17β-estradiol ([1]; based on response curves in ER-CALUX (Fig 2)): ~30.000
- temporary tolerable daily intake (TDI) ([4]; recommended by EFSA, taking into account endocrine effects ref 43): 4 μg/kg body weight per day

SMILES: CCOC(=O)c1ccccc1C(=O)OCC [Diethyl phthalate (DEP), Diethyl phthalate]
- % E2 max [1, 9]: 47%
- % E2 max [1, 7]: 9%
- % E2 max [1, 10]: 69%
- % E2 max [1, 11]: 23%
- % E2 max [1, 8]: 10%
- Estrogen active [yes/no] ([1]; pure substance in ER-CALUX): yes
- EC50 [1, 6]: 200 µM

- Estrogen active [yes/no] ([1]; pure substance in ER-CALUX): no
- Estrogen active [yes/no] ([1]; pure substance in ER-CALUX, listed as DINCH): negative
- EC50 [1, 6]: > 500 µM
SMILES: CC(C)CCCCCCOC(=O)C1CCCCC1C(=O)OCCCCCCC(C)C (centres unmarked) [Diisononyl cyclohexane-1,2-dicarboxylate]
- lowest reference value published [4]: 0.7 mg/kg bw/day

- % E2 max [1, 9]: 8%
- % E2 max [1, 7]: 4%
- % E2 max [1, 10]: 3%
- % E2 max [1, 11]: 34%
- % E2 max [1, 8]: 6%
- Estrogen active [yes/no] ([1]; pure substance in ER-CALUX): yes
- Estrogen active [yes/no] ([1]; pure substance in ER-CALUX, listed as TBC): low, but significant estrogen activity
- EC50 [1, 6]: 50 µM
SMILES: CCCCOC(=O)CC(O)(CC(=O)OCCCC)C(=O)OCCCC [Tributyl citrate (TBC), Tributyl citrate]
- cell viability [5]: decrease in cell viability
